# Columns and labels:
# [1] = tested on: ES-2 cells; assay: Cell growth suppression experiment (ES-2); assay type: cell-based; details: Homo sapiens, 48 h, cultured 2 days, CellTiter-Glo 3D
# Experimental: ES-2 cells were obtained from the American Type Culture Collection (ATCC). These cells were cultured at 37° C. in the presence of 5% CO2 in a McCoy's 5a medium containing 10% fetal bovine serum and 1% penicillin/streptomycin.
# 500 cells were seeded for each well in a 384-well plate, and the evaluated compound was added to the final DMSO concentration of 0.1% to culture the cells for 2 days. After completion of the culture, the cell viability rate was calculated using CellTiter-Glo (registered trademark) 3D Reagent (Promega, G968B).
# [2] = Liposome encapsulation test; assay type: physicochemical; details: concentration upon compound introduction 2 or 3 mg/mL
# Experimental: 6.48 g of hydrogenated soybean phosphatidylcholine (COATSOME NC-21E, NOF Corporation), 2.32 g of cholesterol (Sigma) and 2.06 g of distearoylphosphatidylethanolamine-methoxypolyethylene glycol 2000 (SUNBRIGHT DSPE-020CN, NOF Corporation) were dissolved in 560 mL of t-butyl alcohol heated to 65° C. The solution was frozen with dry ice/acetone bath and t-butyl alcohol was then removed by evaporation under reduced pressure to obtain a lipid mixture.
# 200 mL of 250 mM ammonium sulfate solution was added to the lipid mixture. The resulting mixture was heated to 65° C. and dispersed with a homogenizer (ULTRA-TURRAX, IKA) to obtain a crude liposome dispersion. […] A dialysis cassette (Slide-A-Lyzer G2 Dialysis Cassettes 20K MWCO, Thermo Scientific) was used to replace the outer aqueous phase of the liposome with a 10 mM L-histidine buffer/10% sucrose solution (pH 6.5) to obtain an empty liposome solution. The solution was filtered through a 0.22 μm membrane filter, and a 10 mM L-histidine buffer/10% sucrose solution (pH 6.5) was added to adjust the total lipid concentration to be 75 mM (75 μmol/mL) or 50 mM (50 μmol/mL). The prepared amount was increased or decreased appropriately.
# 2 to 3 mg of the test compound was weighed out. 1 mL of the empty liposome solution with a total lipid concentration of 50 mM was added. An aqueous 1 mol/L hydrochloric acid or 1 mol/L sodium hydroxide solution was added to adjust the pH to 5.5 to 7. […] Insoluble substances, when present, were removed by centrifugation for 5 minutes at 15,000× g.
# The liposome encapsulation ratio was calculated as follows.
# 100 μL of liposome solution was passed through an ultrafiltration filter (Amicon Ultra, 100K, 0.5 mL, Merck), and centrifuged at 4° C. at 15,000×g for 10 minutes. The concentration of the compound in the filtrate after ultrafiltration was measured by HPLC as the unencapsulated compound concentration.
# The liposome solution was diluted with a trifluoroacetic acid/water/methanol mixture (0.1/25/75) and was left standing for 10 minutes or longer at 5° C. The solution was centrifuged for 5 minutes at 15,000× g to remove insoluble substances. The compound concentration in the supernatant was measured by HPLC as the compound concentration in the liposome solution.
# The encapsulation ratio and the encapsulation efficiency were calculated by the following equations.
# HPLC measurement conditions are the following.
# [3] = Pharmacokinetic test, intravenous administration to mice; assay type: in vivo; details: female, BALB/c, mouse, plasma, liposome formulations, 1.0 mg/kg i.v., trapezoidal method, 0 hours to last quantifiable time
# Experimental: Blood was collected over time up to 72 hours after administration from the jugular vein under no anesthesia.
# [4] = molecular target: CHK1 kinase (Homo sapiens (Human), UniProt O14757)
# CHK1 kinase, sequence (O14757 whole entry): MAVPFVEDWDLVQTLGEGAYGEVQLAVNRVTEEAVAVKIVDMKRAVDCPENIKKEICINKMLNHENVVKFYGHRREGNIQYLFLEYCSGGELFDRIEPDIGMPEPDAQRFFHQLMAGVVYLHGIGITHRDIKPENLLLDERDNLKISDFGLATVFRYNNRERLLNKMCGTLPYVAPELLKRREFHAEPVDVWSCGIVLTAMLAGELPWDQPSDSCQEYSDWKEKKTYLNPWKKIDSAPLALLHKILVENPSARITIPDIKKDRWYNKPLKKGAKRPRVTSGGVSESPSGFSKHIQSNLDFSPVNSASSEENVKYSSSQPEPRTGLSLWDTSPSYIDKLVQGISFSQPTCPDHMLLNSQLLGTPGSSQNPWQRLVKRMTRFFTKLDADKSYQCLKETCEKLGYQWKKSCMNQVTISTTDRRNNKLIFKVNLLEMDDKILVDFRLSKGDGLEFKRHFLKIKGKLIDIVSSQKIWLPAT
# [5] = molecular target: hERG (Homo sapiens (Human), UniProt Q12809); assay: in vitro; details: CHO cells stably expressing hERG
# hERG, sequence (Q12809 whole entry): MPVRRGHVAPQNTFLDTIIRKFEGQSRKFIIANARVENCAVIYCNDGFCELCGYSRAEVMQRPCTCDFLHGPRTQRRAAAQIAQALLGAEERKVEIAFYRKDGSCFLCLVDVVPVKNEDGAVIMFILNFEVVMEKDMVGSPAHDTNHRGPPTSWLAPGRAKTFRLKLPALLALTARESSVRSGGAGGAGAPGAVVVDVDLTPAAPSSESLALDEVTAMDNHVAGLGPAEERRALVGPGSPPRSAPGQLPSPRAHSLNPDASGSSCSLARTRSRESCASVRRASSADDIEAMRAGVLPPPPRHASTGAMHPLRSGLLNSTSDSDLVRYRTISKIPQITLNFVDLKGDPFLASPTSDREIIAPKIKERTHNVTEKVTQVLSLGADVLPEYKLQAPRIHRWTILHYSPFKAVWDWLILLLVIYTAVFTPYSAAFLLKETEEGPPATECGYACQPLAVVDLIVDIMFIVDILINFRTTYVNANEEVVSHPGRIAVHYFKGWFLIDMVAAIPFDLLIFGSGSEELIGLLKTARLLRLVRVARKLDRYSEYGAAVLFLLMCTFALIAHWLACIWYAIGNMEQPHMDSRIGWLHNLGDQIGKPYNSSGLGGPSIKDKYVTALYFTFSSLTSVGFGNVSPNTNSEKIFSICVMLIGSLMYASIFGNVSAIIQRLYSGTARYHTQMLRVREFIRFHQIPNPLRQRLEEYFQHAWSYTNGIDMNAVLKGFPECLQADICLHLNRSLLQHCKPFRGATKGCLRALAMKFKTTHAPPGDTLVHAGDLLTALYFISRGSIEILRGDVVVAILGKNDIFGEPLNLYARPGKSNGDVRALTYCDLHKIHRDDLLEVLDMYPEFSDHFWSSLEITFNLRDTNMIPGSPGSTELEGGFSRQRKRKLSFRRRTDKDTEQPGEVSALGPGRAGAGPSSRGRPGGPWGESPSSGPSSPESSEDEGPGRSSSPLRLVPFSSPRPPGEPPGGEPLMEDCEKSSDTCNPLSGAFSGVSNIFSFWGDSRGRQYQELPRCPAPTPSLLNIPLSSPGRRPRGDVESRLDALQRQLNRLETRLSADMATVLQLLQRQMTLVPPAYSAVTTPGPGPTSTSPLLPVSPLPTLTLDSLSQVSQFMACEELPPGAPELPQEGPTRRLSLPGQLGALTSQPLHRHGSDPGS
# [6] = molecular target: hERG current (Homo sapiens (Human), UniProt Q12809); assay: cell-based
# hERG current, sequence (Q12809 whole entry): as above
# [7] = tested on: HT1080 cells; assay: Cell growth suppression test on various cancer cell lines: HT1080; assay type: cell-based; details: Homo sapiens, HT-1080, 72 h; HT1080 (soft tissue sarcoma), cultured 3 days
# Experimental: (§1) HT1080 cells (derived from soft tissue sarcoma) were cultured at 37° C. in the presence of 5% CO2 in an EMEM medium containing 10% fetal bovine serum and 1% penicillin/streptomycin. SJCRH30 cells (derived from soft tissue sarcoma) and BxPC3 cells (derived from pancreatic cancer) were cultured at 37° C. in the presence of 5% C02 in a McCoy's 5a medium containing 10% fetal bovine serum and 1% penicillin/streptomycin. SW948 cells (derived from colon cancer) were cultured at 37° C. in air in a L-15 medium containing 10% fetal bovine serum and 1% penicillin/streptomycin.
# (§2) The cells were seeded for each well in a 96-well plate at 70-90% confluency 96 hours after seeding, the evaluated compound was added to the final DMSO concentration of 0.1%, and the cells were cultured for 3 days. After completion of the culture, the cell viability rate was calculated using CellTiter-Glo (registered trademark) 3D Reagent (Promega, G968B).
# [8] = tested on: SJCRH30 cells; assay: Cell growth suppression test on various cancer cell lines: SJCRH30; assay type: cell-based; details: 72 h; SJCRH30 (soft tissue sarcoma), cultured 3 days
# Experimental: as §1, §2
# [9] = tested on: BxPC3 cells; assay: Cell growth suppression test on various cancer cell lines: BxPC3; assay type: cell-based; details: Homo sapiens, BXPC-3, 72 h; BxPC3 (pancreatic cancer), cultured 3 days
# Experimental: as §1, §2
# [10] = tested on: SW948 cells; assay: Cell growth suppression test on various cancer cell lines: SW948; assay type: cell-based; details: Homo sapiens, 72 h; SW948 (colon cancer), cultured 3 days
# Experimental: as §1, §2
smiles,measurement,setting,value
"N#Cc1cnc(Nc2cc(-c3c(OCC4(CN)CC4)cnc4c3OCC4)[nH]n2)cn1 [Example 14, 5-{[5-(6-{[1-(aminomethyl)cyclopropyl]methoxy)-2,3-dihydrofuro[3,2-b]pyridin-7-yl)-1H-pyrazol-3-yl]amino}pyrazine-2-carbonitrile]",IC50,[1],3.72 nM
same,Compound concentration in liposome solution,[2],1.94 mg/mL
same,Encapsulation ratio,[2],99.9%
same,AUC(0-t),[3],397 µg·h/mL
same,IC50,[4],0.27 nM
same,selectivity ratio,[5],≥ 800
same,IC50,[6],> 10 µM
"N#Cc1cnc(Nc2cc(-c3c(O[C@@H]4CCC[C@H](N)C4)cnc4c3OCC4)[nH]n2)cn1 [Example 24, 5-{[5-(6-{[(1R,3S)-3-aminocyclohexyl]oxy}-2,3-dihydrofuro[3,2-b]pyridin-7-yl)-1H-pyrazol-3-yl]amino}pyrazine-2-carbonitrile]",IC50,[1],12.7 nM
same,IC50,[4],0.31 nM
same,IC50,[6],4.8 µM
"N#Cc1cnc(Nc2cc(-c3c(OCCCN)ccc4ccnn34)[nH]n2)cn1 [Example 6, 5-({5-[6-(3-aminopropoxy)pyrazolo[1,5-a]pyridin-7-yl]-1H-pyrazol-3-yl}amino)pyrazine-2-carbonitrile]",IC50,[1],6.24 nM
same,Compound concentration in liposome solution,[2],1.88 mg/mL
same,Encapsulation ratio,[2],100.0%
same,AUC(0-t),[3],430 µg·h/mL
same,IC50,[4],0.21 nM
same,IC50,[6],1.3 µM
"C[C@H](CN)COc1cnc2c(c1-c1cc(Nc3cnc(C#N)cn3)n[nH]1)OCC2 [Example 28, 5-[(5-{6-[(2R)-3-amino-2-methylpropoxy]-2,3-dihydrofuro[3,2-b]pyridin-7-yl}-1H-pyrazol-3-yl)amino]pyrazine-2-carbonitrile]",IC50,[1],6.4 nM
same,IC50,[7],< 3 nM
same,IC50,[8],< 3 nM
same,IC50,[9],< 3 nM
same,IC50,[10],5 nM
same,IC50,[4],0.43 nM
"N#Cc1cnc(Nc2cc(-c3c(OCCCN)cnc4cccnc34)[nH]n2)cn1 [Example 8, 5-({5-[3-(3-aminopropoxy)-1,5-naphthyridin-4-yl]-1H-pyrazol-3-yl}amino)pyrazine-2-carbonitrile]",IC50,[1],7.02 nM
same,IC50,[7],9.1 nM
same,IC50,[8],< 3 nM
same,IC50,[9],7 nM
same,IC50,[10],22.3 nM
same,IC50,[4],0.5 nM
"N#Cc1cnc(Nc2cc(-c3c(O[C@H]4C[C@H](N)[C@H]5C[C@H]54)cnc4c3OCC4)[nH]n2)cn1 [Example 29, 5-{[5-(6-{[(1R,2S,4S,5S)-4-aminobicyclo[3.1.0]hexan-2-yl]oxy)-2,3-dihydrofuro[3,2-b]pyridin-7-yl)-1H-pyrazol-3-yl]amino}pyrazine-2-carbonitrile]",IC50,[1],29.4 nM
same,IC50,[4],0.33 nM
same,IC50,[6],> 10 µM
"COc1cccc(OCCCN)c1-c1cc(Nc2cnc(C#N)cn2)n[nH]1 [Prexasertib, reference compound]",IC50,[1],8.55 nM
same,Compound concentration in liposome solution,[2],2.16 mg/mL
same,IC50,[7],14.9 nM
same,IC50,[8],4.9 nM
same,IC50,[9],9.5 nM
same,IC50,[10],38.9 nM
"N#Cc1cnc(Nc2cc(-c3c(OCC4(F)CNC4)cnc4cccnc34)[nH]n2)cn1 [Example 35, 5-[(5-{3-[(3-fluoroazetidin-3-yl)methoxy]-1,5-naphthyridin-4-yl}-1H-pyrazol-3-yl)amino]pyrazine-2-carbonitrile]",IC50,[1],8 nM
same,IC50,[4],0.6 nM
same,selectivity ratio,[5],≥ 800
same,IC50,[6],> 10 µM
N#Cc1cnc(Nc2cc(-c3c(OC[C@@H]4CNCCO4)cnc4cccnc34)[nH]n2)cn1 [Example 12],IC50,[1],23.2 nM
same,IC50,[4],0.38 nM
same,IC50,[6],1 µM
